Measured values from US20070098735A1, “Methods for the Elimination of Pathogens and Other Particulate Agents” (priority 2005, published 2007).

Columns and labels:
[1] = tested on: Murine macrophage lines (RAW264.7, J774.A1 or RAW264NO-); assay: Phagocytosis assay in vitro (uptake of Alexa Fluor 488-labeled particles); format: cell-based; parameters: effect of LR-disrupting drugs on HSP70-mediated phagocytosis: dose or concentration left out as unconfirmed; settings: for uptake of labeled S. cerevisiae as compared to treatment with HSP70 (specificity controls): equimolar to HSP70 100 μg/ml, BSA 100 μg/ml, concavalin A 6 μg/ml, adjuvants 10 μl/well, ADP, ATP 3 mM
Experimental: Phagocytosis Assay in vitro. RAW 264.7, RAW264.7 (NO-) and J774A.1 cells were cultured in DMEM or RPMI (RAW NO-) with 10% FCS, harvested, and washed. 3×10^5 cells/well were incubated in serum-free Earle's minimal essential medium (EMEM) in a 24-well plate for 1 hour at 37° C. Alexa Fluor® 488-labeled particles (inert polystyrene microspheres; or yeast, Saccharomyces cerevisiae or Gram-negative bacteria, Escherichia coli, 40 particles/macrophage) were added and co-incubated in a dark environment for 60 minutes in serum free EMEM with or without HSPs, LPS, or control proteins. At the end of 60 minutes incubation, the plate was covered in a dark container on ice. Specific measures were taken to exclude the fluorescence that resulted from particles that were outside of the cell or sticking to the surface of the cell. […] Specifically, trypan blue (0.8 mg/ml) was added for 60 seconds and plates were analyzed immediately using FluorImager SI (Molecular Dynamics/Amersham). Since the emission of Alexa Fluor® 488, about 519 nm at an excitation of about 490 nm, falls within the absorbance range of trypan blue (475-675 nm), the fluorescence of the sample only represents the intracellular fluorescence. External or surface-bound fluorescence is quenched. Using Student's t test, the results were analyzed and P-values were calculated.
HSP-mediated phagocytosis was quantified by measuring the internalized fluorescence measured by FluorImager SI and Relative Mean Fluorescence Intensity (RMFI) was compared between the treatment groups (as indicated). All the treatment groups were compared to medium alone using the Student's t test and significance denoted by P<0.01. The error bar represents one standard deviation. The results shown are a cumulative analysis of 3 experiments, 3 wells/group.

[2] = tested on: CD4+ T cells purified from spleens of DO 11.10 mice; assay: Proliferation of CD4+ T cells after MHC-II presentation of OVA-coated yeast by macrophages (FACS); format: cell-based; settings: cytochalasin-D treatment
Experimental: Proliferation of CD4+ T cells and INF-γ (interferon gamma) release. Unlabeled S. cerevisiae (80 μg) was incubated with excess chicken ovary albumin (OVA) at 37° C. for 1 hour and washed repeatedly to eliminate free OVA protein. S. cerevisiae-OVA complexes (OVA-coated yeast) were administered to macrophages treated with or without HSP70. Macrophages were then washed and irradiated at 12,000 rads and assessed for viability by trypan blue exclusion. Subsequently, they were co-cultured with CD4+ T lymphocytes that were purified from spleens of DO 11.10 mice and labeled with carboxyfluoroscein succinimidyl ester (CSFE). […] Following the 48-hour incubation, proliferation of CD4+ cells was determined with FACS and IFN-γ release in the supernatant was tested by enzyme-linked immunosorbent assay (ELISA; Pierce, Ill.).
Alexafluor labeled S. cerevisiae were coated with whole ovalbumin (OVA) protein 1 mg/ml by co-incubation at 37° C. for 20 minutes and washed until free OVA protein was removed (washes were tested by gel electrophoresis using SDS-PAGE and immunoblotting). […] Resultant proliferation of the CSFE-labeled CD4+ was measured by FACS as an indirect measure of the amount of OVA protein processed and its peptide epitope presented in context of MHC-II. […]

[3] = tested on: full thickness surgical wounds on the dorsum of BALB/cJ mice; assay: Closure of full thickness surgical wounds, percent wound closure; format: in vivo; settings: day 2 post surgery; for wound healing on day 2: 30 μg/dose
Experimental: Surgery and Treatment. Mice were anesthetized using Ketamine (2.0 mg/mouse) and Xylazine (0.1 mg/mouse) were administered intraperitoneally (IP) and the dorsal skin was shaved. After sterile prepping of the area, a full thickness circular wound, 8 mm diameter, was made on the dorsal skin using a disposable biopsy punch (Miltex Inc, York, Pa.) on the midline of the dorsum approximately at the iliac crest. The mice were then randomly assigned into the treatment groups. Initial wound measurements were performed while the mice were still anesthetized. Mice were then treated on days 0, 2, 4, and 6 unless otherwise specified. All agents used as treatment were diluted in 0.5 ml of PBS and injected using a 25-gauge needle in the subcutaneous space in the nape of the neck. The surgical procedures, post-operative monitoring, and safety concerns were approved by the Institutional Animal Care and Usage Committee.
Measurements and Analysis. Wound healing of open wounds is a complex process with many parameters to consider. […] The wound surface area was determined by measuring the craniocaudal and lateromedial distances using vernier calipers in perpendicular axis on days 0, 2, 4, 6, 9, and 11 postoperatively unless noted. Changes in wound area were expressed as percent wound closure. Wound closure data was plotted as average percent wound closure ±SEM unless otherwise noted. All calculations and data analysis were performed using Microsoft Excel and Sigma Plot. Sigma Plot was used to perform Student's t-tests for reported P values.
Full thickness surgical wounds were created on the dorsum of BALB/cJ mice as described in Methods. Wounds were made on day 0. Subsequently, the wounds were treated with exogenous injections of HSP70, HSP90, gp96 (30 μg/dose) or buffer administered subcutaneously (SC) on days 0, 2, 4 and 6 following surgery (FIG. 6A). The wounds were measured on days 0, 2, 4, 6, 9, 11 unless otherwise noted. Wounds were measured serially, percent wound closure was calculated and plotted against time in order to quantitate the rate of healing by secondary intention. […] Data is plotted as average percent wound closure ±SEM on days indicated. Two mice from each treatment group (PBS (n=12), HSP70 (n=11), HSP90 (n=12), and gp96 (n=11)) were sacrificed for histology on days 2, 4, and 6 post-surgery (data not shown). The P values obtain using the Student's t-test.
Results are of average percent wound closure ±SEM on day 2 post surgery. The *P values were obtained using the Student's t-test by comparing HSP treatment to all of the non-HSP control treatments. The least significant P value was reported. […] Doses higher than 50 μg/dose were not tested.

`Nc1ncnc2c1ncn2[C@@H]1O[C@H](COP(=O)(O)OP(=O)(O)O)[C@@H](O)[C@H]1O` [ADP, adenosine diphosphate] was tested. Which “uptake of labeled S. cerevisiae as compared to treatment with HSP70 (specificity controls)” value [1] did it give?
Its value is “ineffective”.

How did the “uptake of labeled S. cerevisiae as compared to treatment with HSP70 (specificity controls)” value [1] turn out when `Nc1ncnc2c1ncn2[C@@H]1O[C@H](COP(=O)(O)OP(=O)(O)OP(=O)(O)O)[C@@H](O)[C@H]1O` [ATP, adenosine triphosphate] was run?
The value was “ineffective”.

For `C=CCn1c(=O)n([C@@H]2O[C@H](CO)[C@@H](O)[C@H]2O)c2nc(N)[nH]c(=O)c21` [LRB, Loxoribine], which “dose dependence of inhibitory effect on HSP70-mediated phagocytosis” value ([1]; LRB 0-330 μM, HSP70 100 μg/ml) is on record?
The value was “titratable by dose”.

For `C=C1[C@@H](C)[C@H]2[C@H](Cc3ccccc3)NC(=O)[C@]23[C@H](OC(C)=O)/C=C/[C@@](C)(O)C(=O)[C@@H](C)C/C=C/[C@H]3[C@@H]1O` [cytochalasin-D, reference compound], which “effect on HSP70-mediated internalization (actin polymerization inhibited)” value ([1]; cytochalasin-D 4 μM with HSP70) is on record?
The value was “showed inhibition of the effects of HSP70”.

What about the “effect on CD4+ proliferation caused by HSP70-treatment” value [2] of the same molecule?
Its value is “abrogated the proliferation caused by HSP70-treatment”.

Which “effect of LR-disrupting drugs on HSP70-mediated phagocytosis” value ([1]; nystatin or MCD, labeled yeast 40 particles/macrophage) does the source give for `C[C@@H]1[C@H](O)[C@@H](C)/C=C/C=C/CC/C=C/C=C/C=C/C=C/C(O[C@H]2O[C@H](C)[C@@H](O)[C@H](N)[C@@H]2O)CC2O[C@](O)(CC(O)C(O)CCC(O)CC(O)CC(O)CC(=O)O[C@H]1C)CC(O)C2C(=O)O` (some centres unmarked) [nystatin] here?
The value was “HSP70-mediated phagocytosis was inhibited”.

Which “wound healing on day 2” value [3] does the source give for `O=c1[nH]c(=O)c2[nH]c(=O)[nH]c2[nH]1` [uric acid, reference compound] here?
Its value is 13%.

What about the “wound closure of non-HSP controls compared to PBS control” value [3] of the same molecule?
The value was “not significantly different to the PBS control”.

beta galactosidase was tested. Which “uptake of labeled S. cerevisiae as compared to treatment with HSP70 (specificity controls)” value [1] did it give?
The value was “None of control proteins used enhanced uptake”.

For bovine serum albumin [BSA], which “uptake of labeled S. cerevisiae as compared to treatment with HSP70 (specificity controls)” value [1] is on record?
Its value is “None of control proteins used enhanced uptake”.

How did the “uptake of labeled S. cerevisiae as compared to treatment with HSP70 (specificity controls)” value [1] turn out when concavalin A was run?
Its value is “None of control proteins used enhanced uptake”.

B1: phosphorylase B (protein, UniProt P00489 2-843, looked up)
Glycogen phosphorylase, …: SRPLSDQEKRKQISVRGLAGVENVTELKKNFNRHLHFTLVKDRNVATPRDYYFALAHTVRDHLVGRWIRTQQHYYEKDPKRIYYLSLEFYMGRTLQNTMVNLALENACDEATYQLGLDMEELEEIEEDAGLGNGGLGRLAACFLDSMATLGLAAYGYGIRYEFGIFNQKICGGWQMEEADDWLRYGNPWEKARPEFTLPVHFYGRVEHTSQGAKWVDTQVVLAMPYDTPVPGYRNNVVNTMRLWSAKAPNDFNLKDFNVGGYIQAVLDRNLAENISRVLYPNDNFFEGKELRLKQEYFVVAATLQDIIRRFKSSKFGCRDPVRTNFDAFPDKVAIQLNDTHPSLAIPELMRVLVDLERLDWDKAWEVTVKTCAYTNHTVLPEALERWPVHLLETLLPRHLQIIYEINQRFLNRVAAAFPGDVDRLRRMSLVEEGAVKRINMAHLCIAGSHAVNGVARIHSEILKKTIFKDFYELEPHKFQNKTNGITPRRWLVLCNPGLAEIIAERIGEEYISDLDQLRKLLSYVDDEAFIRDVAKVKQENKLKFAAYLEREYKVHINPNSLFDVQVKRIHEYKRQLLNCLHVITLYNRIKKEPNKFVVPRTVMIGGKAAPGYHMAKMIIKLITAIGDVVNHDPVVGDRLRVIFLENYRVSLAEKVIPAADLSEQISTAGTEASGTGNMKFMLNGALTIGTMDGANVEMAEEAGEENFFIFGMRVEDVDRLDQRGYNAQEYYDRIPELRQIIEQLSSGFFSPKQPDLFKDIVNMLMHHDRFKVFADYEEYVKCQERVSALYKNPREWTRMVIRNIATSGKFSSDRTIAQYAREIWGVEPSRQRLPAPDEKIP
notes: control protein of molecular weight corresponding to the HSPs
How did the “uptake of labeled S. cerevisiae as compared to treatment with HSP70 (specificity controls)” value [1] turn out when B1 was run?
Its value is “None of control proteins used enhanced uptake”.

And the “wound healing on day 2” value [3]?
Its value is 19%.

What about the “wound closure of non-HSP controls compared to PBS control” value [3] of the same molecule?
Its value is “not significantly different to the PBS control”.
